Source: patent US11883372B2, “Pharmaceutical composition” (MEXICHEM FLUOR S.A. DE C.V., priority 2016, dated 2024)

Assay: In vitro aerosolization performance of MDI formulations (Next Generation Impactor, HPLC)
Assay type: physicochemical
Settings: for FPFED (%) fine particle fraction of the emitted dose / Fine particle Dose (μg ± S.D.) / MMAD ± GSD / Emitted Dose (μg ± S.D.): NGI at 30 L.min^−1; for MMAD ± GSD: in µm (unit assumed); for Emitted Dose (μg ± S.D.): nominal dose salmeterol xinafoate 25 μg, fluticasone propionate 125 μg
Protocol: The nominal dose of salmeterol xinafoate was 25 μg and the nominal dose of fluticasone propionate was 125 μg.
A 100 mm×4.6 mm Ascentis Express […] column with a 2.7 μm particle size was used for the analysis.

[1] = combination MDI formulation in HFA-134a
[2] = combination MDI formulation in HFA-152a

With `CCC(=O)O[C@]1(C(=O)SCF)[C@H](C)C[C@H]2[C@@H]3C[C@H](F)C4=CC(=O)C=C[C@]4(C)[C@@]3(F)[C@@H](O)C[C@@]21C` [Fluticasone Propionate, fluticasone propionate] as the molecule, how does the “fine particle fractions of the emitted doses upon aerosolization, HFA-152a compared with HFA-134a” value (HFA-152a used as the propellant, versus HFA-134a (Tables 2 and 3)) read?
Its value is “significantly better”.

What about the “FPFED (%) fine particle fraction of the emitted dose” value [1] of the same molecule?
The value was 31.0%.

And the “Fine particle Dose (μg ± S.D.)” value [1]?
Its value is 31.6 ± 3.3 µg.

And the “MMAD ± GSD” value [1]?
The value was 3.8 ± 2.5.

What about the “Emitted Dose (μg ± S.D.)” value [1] of the same molecule?
The value was 101.7 ± 8.7 µg.

And the “FPFED (%) fine particle fraction of the emitted dose” value [2]?
Its value is 40.0%.

What about the “Fine particle Dose (μg ± S.D.)” value [2] of the same molecule?
The value was 43.5 ± 3.4 µg.

What about the “MMAD ± GSD” value [2] of the same molecule?
Its value is 2.9 ± 2.1.

What about the “Emitted Dose (μg ± S.D.)” value [2] of the same molecule?
The value was 108.7 ± 1.1 µg.
